Reference: US20230279482A1, “COMPOSITIONS, METHODS AND USES FOR QUANTIFYING TRANSCRIPTION AND BIOSENSING OF SMALL MOLECULES USING A NOVEL TYPE VI CRISPR-CAS ASSAY” (THE REGENTS OF THE UNIVERSITY OF COLORADO, A BODY CORPORATE, priority 2020, published 2023)

Molecular target: T1, Cas13a (Leptotrichia wadei, UniProt U2PSH1)
T1 construct: His-tag (N, cleaved yes); twinstrep (N, cleaved yes); SUMO (N, cleaved yes); made in house; host or cells: BL21(DE3) Rosetta Escherichia coli
T1 sequence (U2PSH1 1-1182): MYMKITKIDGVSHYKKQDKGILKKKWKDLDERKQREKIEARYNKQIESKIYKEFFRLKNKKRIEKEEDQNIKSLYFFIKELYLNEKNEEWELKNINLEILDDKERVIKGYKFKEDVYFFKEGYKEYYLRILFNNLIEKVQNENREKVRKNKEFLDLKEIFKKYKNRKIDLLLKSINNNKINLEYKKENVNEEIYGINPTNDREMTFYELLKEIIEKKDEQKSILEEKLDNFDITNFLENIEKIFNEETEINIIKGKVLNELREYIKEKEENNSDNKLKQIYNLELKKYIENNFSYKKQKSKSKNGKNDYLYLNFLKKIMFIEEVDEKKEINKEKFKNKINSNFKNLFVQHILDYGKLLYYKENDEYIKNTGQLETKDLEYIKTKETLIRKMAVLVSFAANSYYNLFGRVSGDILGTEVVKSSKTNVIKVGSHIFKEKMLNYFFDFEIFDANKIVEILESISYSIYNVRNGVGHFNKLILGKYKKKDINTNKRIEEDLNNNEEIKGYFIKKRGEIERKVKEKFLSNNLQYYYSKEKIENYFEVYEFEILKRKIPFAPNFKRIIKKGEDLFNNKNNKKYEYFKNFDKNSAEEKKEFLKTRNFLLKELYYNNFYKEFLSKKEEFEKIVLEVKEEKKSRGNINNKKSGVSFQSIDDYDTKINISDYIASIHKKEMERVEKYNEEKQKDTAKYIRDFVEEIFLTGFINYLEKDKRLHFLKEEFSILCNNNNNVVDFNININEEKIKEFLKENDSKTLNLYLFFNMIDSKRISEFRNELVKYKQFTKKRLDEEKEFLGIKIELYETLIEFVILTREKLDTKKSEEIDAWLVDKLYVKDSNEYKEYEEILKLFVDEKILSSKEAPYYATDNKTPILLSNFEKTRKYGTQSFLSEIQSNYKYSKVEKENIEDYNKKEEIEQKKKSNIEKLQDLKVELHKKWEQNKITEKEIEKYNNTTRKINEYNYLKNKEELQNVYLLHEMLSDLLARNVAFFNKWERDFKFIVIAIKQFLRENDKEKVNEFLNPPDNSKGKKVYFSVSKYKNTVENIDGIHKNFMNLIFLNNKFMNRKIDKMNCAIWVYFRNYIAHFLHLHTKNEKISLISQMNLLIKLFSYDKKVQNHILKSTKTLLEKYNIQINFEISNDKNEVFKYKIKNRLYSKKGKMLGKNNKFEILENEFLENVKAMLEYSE
Assay: SHERLOCK reactions without RNAP at varying sodium fluoride
Assay type: biochemical, Leptotrichia wadeii
Details: FIG. 6A
Method: Purification of LwaCas13a protein. LwaCas13a from Leptotrichia wadeii has a specific preference for collaterally cleaving poly-uracil ssRNA oligos and was used for various experiments in these examples. LwaCas13a was purified as follows. The expression plasmid (pC013) encoded LwaCas13a with an N-terminal His-tag, followed by twinstrep and SUMO tags. The plasmid was transformed into BL21(DE3) Rosetta Escherichia coli cells. 20 mL bacterial culture was grown overnight in Luria broth (LB) medium supplemented with 100 μM carbenicillin that was used to inoculate 1 L cultures in LB medium. The culture was shaken at 37° C. until the OD600 reached around 0.6. The culture was cooled down to approximately 20° C. in a cold water bath and protein expression was induced by adding 0.5 mM Isopropyl beta-D-1-thiogalactopyronoside (IPTG). The culture was grown in a 20° C. shaker for 16 hours. […] Protein concentration was determined using the absorbance at 280 nm and an extinction coefficient of 119800 M^−1 cm^−1; 1.5 mL of 47 μM protein was obtained from 2 liters of culture. […]
In other methods, SHERLOCK reactions were performed with purified target RNA as input, the concentration of the components, order of addition of components and measurement of fluorescence was carried out the same way as in the SPRINT reactions. […]

fluoride concentration at which Cas13a activity sharply dropped: around 600 μM
Compound: [F-].[Na+] [fluoride, sodium fluoride]
